Assay results published in patent publication US20060211687A1, “Potassium salt of an hiv integrase inhibitor” (priority 2003, published 2006).

Tests used:
[1] = tested on: HIV infection of T-lymphoid cells; assay: inhibition of acute HIV infection of T-lymphoid cells; type: cell-based; details: in accordance with Vacca et al.
[2] = target: T1, HIV integrase (Human immunodeficiency virus type 1 group M subtype B, UniProt P04585); assay: integrase inhibition assay in which strand transfer is catalyzed by recombinant integrase; type: biochemical; details: assay of Example 193 of WO 02/30930
T1 construct: strand transfer is catalyzed by recombinant integrase
From the text: Compound A is an inhibitor of HIV integrase. […] The strand transfer assay is described in Example 193 of WO 02/30930.

[3] = solubility in ethanol containing water; type: physicochemical; details: ethanol containing 1 to 5 vol. % and 10 vol% water
Procedure: Experiments have been conducted in which the Compound A K salt ethanolate of the present invention was slurried in ethanol containing 1, 2, 3, 4, 5 and 10 vol. % water, followed by measurement of the XRPD patterns of the collected crystals. In addition, the solubility of the Compound A K salt ethanolate was also determined for the 1 to 5 vol. % and 10 vol% water in ethanol solutions. […] Accordingly, it is believed that the crystalline ethanolate hydrate material of the present invention exists as a water-ethanol isomorphic co-solvate. […] In accordance with these experimental results, the crystalline potassium salt ethanolate of Compound A of the invention can contain water as a co-solvate up to a maximum water content, beyond which the crystalline salt (as shown by the XRPD and solubility results described above) changes to another form.

[4] = solubility in water; type: physicochemical; details: compared to the free base
[5] = hygroscopicity; type: physicochemical; details: compared with the sodium salt of Compound A
[6] = oral bioavailability and pharmacokinetics in dogs; type: in vivo; details: relative to amorphous and crystalline Compound A
[7] = pharmacokinetics in animal models; type: in vivo; details: over the free base
[8] = stability of the salt; type: physicochemical; details: compared with the sodium salt of Compound A
[9] = oral bioavailability and pharmacokinetics in rats; type: in vivo; details: relative to amorphous and crystalline Compound A
[10] = listed as crystalline potassium salt of Compound A

## CNC(=O)c1cc(F)ccc1CNC(=O)c1nc(N2CCCCS2(=O)=O)c2cccnc2c1O [Compound A, 5-(1,1-dioxido-1,2-thiazinan-2-yl)-N-{4-fluoro-2-[(methylamino)carbonyl]benzyl}-8-hydroxy-1,6-naphthyridine-7-carboxamide]
[1]
  inhibition of acute HIV infection of T-lymphoid cells: active
[2]
  inhibition of HIV integrase (strand transfer): potent inhibitor

## CNC(=O)c1cc(F)ccc1CNC(=O)c1nc(N2CCCCS2(=O)=O)c2cccnc2c1[O-].[K+] [Salt A1, Potassium 5-(1,1-dioxido-1,2-thiazinan-2-yl)-7-[({4-fluoro-2-[(methylamino)carbonyl]benzyl}amino)carbonyl]-1,6-naphthyridin-8-olate]
[3]
  solubility trend: increasing solubility from 1 to 5 vol % reversed to lower solubility at 10 vol. %

## CNC(=O)c1cc(F)ccc1CNC(=O)c1nc(N2CCCCS2(=O)=O)c2cccnc2c1[O-].[K+] [potassium salt of Compound A, Potassium 5-(1,1-dioxido-1,2-thiazinan-2-yl)-7-[({4-fluoro-2-[(methylamino)-carbonyl]benzyl}amino)carbonyl]-1,6-naphthyridin-8-olate]
[4]
  solubility in water: significantly more soluble
[5]
  hygroscopicity: significantly less hygroscopic
[5]; [10]
  hygroscopicity: less
[6]
  AUC: improved
  Cmax: improved
  oral bioavailability: superior
[7]
  pharmacokinetics: improved
[8]
  stability: more stable
[8]; [10]
  stability: improved
[9]
  AUC: improved
  Cmax: improved
  oral bioavailability: superior
